Reference: patent US4681755A, “Delivery device for zero-order release of an active principle into a dissolution fluid and process for its preparation” (Sigma-Tau Industrie Farmaceutiche Riunite S.p.A., priority 1984, dated 1987)
Where two headings read alike, the source gives them in different places.

Tests used:
[1] = In vitro release, USP XXI "paddle" apparatus, distilled water at 37° C.; assay type: physicochemical
Protocol: "In vitro" experiments were carried out both on (i) the uncoated solid matrix-type reservoirs, and (ii) the finished devices; i.e., on the reservoirs coated both with the release rate-controlling membrane and with the protective membrane loaded with a portion of the active principle which is desired to be immediately available.
To carry out such experiments, a USP XXI "paddle" apparatus was used with distilled water at 37° C. as the dissolution medium.

[2] = Ex. 1 device, healthy volunteer
Protocol: A healthy volunteer was administered the same device. The following plasma levels of active principle were detected.

[3] = In vitro release, USP XXI "paddle" apparatus, distilled water at 37° C.; assay type: physicochemical; conditions: Ex. 2, coated reservoir, no drug in protective membrane
[4] = In vitro model, diltiazem release (Example 7; apparatus not restated); assay type: physicochemical
[5] = Ex. 1, coated reservoir, drug-loaded protective membrane, 1 h
[6] = Ex. 1, coated reservoir, drug-loaded protective membrane, 2 h
[7] = Ex. 1, coated reservoir, drug-loaded protective membrane, 3 h
[8] = Ex. 1, coated reservoir, drug-loaded protective membrane, 4 h
[9] = Ex. 1, coated reservoir, drug-loaded protective membrane, 5 h
[10] = Ex. 1, coated reservoir, drug-loaded protective membrane, 6 h
[11] = Ex. 1, uncoated solid matrix-type reservoir (100 mg), 30 min
[12] = Ex. 1, uncoated solid matrix-type reservoir (100 mg), 60 min
[13] = Ex. 1, uncoated solid matrix-type reservoir (100 mg), 90 min
[14] = Ex. 1, uncoated solid matrix-type reservoir (100 mg), 120 min

## CC(=O)O[C@H](CC(=O)[O-])C[N+](C)(C)C [Acetyl L-carnitine, acetyl L-carnitine]
[1]; Ex. 3, coated reservoir, no drug in protective membrane, 1 h
  Total drug released: 60 mg
[1]; Ex. 3, coated reservoir, no drug in protective membrane, 2 h
  Total drug released: 135 mg
[1]; Ex. 3, coated reservoir, no drug in protective membrane, 3 h
  Total drug released: 210 mg
[1]; Ex. 3, coated reservoir, no drug in protective membrane, 4 h
  Total drug released: 280 mg
[1]; Ex. 3, coated reservoir, no drug in protective membrane, 5 h
  Total drug released: 348 mg
[1]; Ex. 3, coated reservoir, no drug in protective membrane, 6 h
  Total drug released: 411 mg
[1]; Ex. 3, uncoated solid matrix-type reservoir (500 mg), 30 min
  Total drug released: 158 mg
[1]; Ex. 3, uncoated solid matrix-type reservoir (500 mg), 60 min
  Total drug released: 242 mg
[1]; Ex. 3, uncoated solid matrix-type reservoir (500 mg), 90 min
  Total drug released: 335 mg
[1]; Ex. 3, uncoated solid matrix-type reservoir (500 mg), 120 min
  Total drug released: 395 mg

## COc1ccc2c(C(=O)c3ccc(Cl)cc3)c(C)n(CC(=O)O)c2c1.NCCCCC(N)C(=O)O [Clometacin lysinate, clometacin lysinate]
[1]; Ex. 4, coated reservoir, drug-loaded protective membrane, 1 h
  Total drug released: 15 mg
[1]; Ex. 4, coated reservoir, drug-loaded protective membrane, 2 h
  Total drug released: 40 mg
[1]; Ex. 4, coated reservoir, drug-loaded protective membrane, 3 h
  Total drug released: 61 mg
[1]; Ex. 4, coated reservoir, drug-loaded protective membrane, 4 h
  Total drug released: 78 mg
[1]; Ex. 4, coated reservoir, drug-loaded protective membrane, 5 h
  Total drug released: 95 mg
[1]; Ex. 4, coated reservoir, drug-loaded protective membrane, 6 h
  Total drug released: 116 mg
[1]; Ex. 4, uncoated solid matrix-type reservoir (150 mg), 30 min
  Total drug released: 63 mg
[1]; Ex. 4, uncoated solid matrix-type reservoir (150 mg), 60 min
  Total drug released: 91 mg
[1]; Ex. 4, uncoated solid matrix-type reservoir (150 mg), 90 min
  Total drug released: 105 mg
[1]; Ex. 4, uncoated solid matrix-type reservoir (150 mg), 120 min
  Total drug released: 124 mg

## COc1ccc2c(c1)c(CC(=O)O)c(C)n2C(=O)c1ccc(Cl)cc1.NCCCC[C@H](N)C(=O)O [Indomethacin lysinate, Lysine salt of indomethacin]
[2]; 1 h
  Plasma level of active principle: 1600 ng/mL
[2]; 2 h
  Plasma level of active principle: 2500 ng/mL
[2]; 5 h
  Plasma level of active principle: 3200 ng/mL
[2]; 8 h
  Plasma level of active principle: 1500 ng/mL
[2]; 12 h
  Plasma level of active principle: 1100 ng/mL
[2]; 24 h
  Plasma level of active principle: 800 ng/mL
[1]; Ex. 1, after release rate-controlling membrane is applied
  Release rate in vitro: substantially constant through the sixth hour
[1]; [5]
  Rate: 14 mg/h
  Total drug released: 14 mg
[1]; [6]
  Rate: 12.5 mg/h
  Total drug released: 25 mg
[1]; [7]
  Rate: 13.3 mg/h
  Total drug released: 40 mg
[1]; [8]
  Rate: 14.25 mg/h
  Total drug released: 57 mg
[1]; [9]
  Rate: 15.4 mg/h
  Total drug released: 77 mg
[1]; [10]
  Rate: 15.5 mg/h
  Total drug released: 93 mg
[1]; Ex. 1, uncoated solid matrix-type reservoir
  Time in which drug is wholly released: about 5 hours
[1]; [11]
  Rate: 40 mg/h
  Total drug released: 20 mg
[1]; [12]
  Rate: 54 mg/h
  Total drug released: 54 mg
[1]; [13]
  Rate: 43 mg/h
  Total drug released: 65 mg
[1]; [14]
  Rate: 37.5 mg/h
  Total drug released: 75 mg

## methisoprinol
[1]; Ex. 2, coated reservoir, no drug in protective membrane, 2 h
  Total drug released: 115 mg
[1]; Ex. 2, coated reservoir, no drug in protective membrane, 3 h
  Total drug released: 173 mg
[1]; Ex. 2, coated reservoir, no drug in protective membrane, 4 h
  Total drug released: 223 mg
[1]; Ex. 2, coated reservoir, no drug in protective membrane, 6 h
  Total drug released: 315 mg
[1]; Ex. 2, coated reservoir, no drug in protective membrane, 7 h
  Total drug released: 357 mg
[1]; Ex. 2, uncoated solid matrix-type reservoir (500 mg), 30 min
  Total drug released: 225 mg
[1]; Ex. 2, uncoated solid matrix-type reservoir (500 mg), 60 min
  Total drug released: 312 mg
[1]; Ex. 2, uncoated solid matrix-type reservoir (500 mg), 90 min
  Total drug released: 365 mg
[1]; Ex. 2, uncoated solid matrix-type reservoir (500 mg), 120 min
  Total drug released: 405 mg
[3]; 1 h
  Total drug released: 53 mg
[3]; 5 h
  Total drug released: 273 mg

## CCC(COC(=O)c1cc(OC)c(OC)c(OC)c1)(c1ccccc1)N(C)C (stereo not shown) [Trimebutine, trimebutine]
[1]; Ex. 5, coated reservoir, drug-loaded protective membrane, 1 h
  Total drug released: 18 mg
[1]; Ex. 5, coated reservoir, drug-loaded protective membrane, 2 h
  Total drug released: 30 mg
[1]; Ex. 5, coated reservoir, drug-loaded protective membrane, 3 h
  Total drug released: 50 mg
[1]; Ex. 5, coated reservoir, drug-loaded protective membrane, 4 h
  Total drug released: 67 mg
[1]; Ex. 5, coated reservoir, drug-loaded protective membrane, 5 h
  Total drug released: 90 mg
[1]; Ex. 5, coated reservoir, drug-loaded protective membrane, 6 h
  Total drug released: 103 mg
[1]; Ex. 5, uncoated solid matrix-type reservoir (140 mg), 30 min
  Total drug released: 20 mg
[1]; Ex. 5, uncoated solid matrix-type reservoir (140 mg), 60 min
  Total drug released: 64 mg
[1]; Ex. 5, uncoated solid matrix-type reservoir (140 mg), 90 min
  Total drug released: 80 mg
[1]; Ex. 5, uncoated solid matrix-type reservoir (140 mg), 120 min
  Total drug released: 105 mg
[1]; Ex. 6, coated reservoir, protective membrane loaded with 15 mg drug, 0.5 h
  Total drug released: 22.5 mg
[1]; Ex. 6, coated reservoir, protective membrane loaded with 15 mg drug, 1 h
  Total drug released: 45.0 mg
[1]; Ex. 6, coated reservoir, protective membrane loaded with 15 mg drug, 2 h
  Total drug released: 82.5 mg
[1]; Ex. 6, coated reservoir, protective membrane loaded with 15 mg drug, 3 h
  Total drug released: 105.0 mg
[1]; Ex. 6, coated reservoir, protective membrane loaded with 15 mg drug, 4 h
  Total drug released: 120.0 mg
[1]; Ex. 6, coated reservoir, protective membrane loaded with 15 mg drug, 5 h
  Total drug released: 127.5 mg
[1]; Ex. 6, uncoated solid matrix-type reservoir (135 mg), 20 min
  Total drug released: 47 mg
[1]; Ex. 6, uncoated solid matrix-type reservoir (135 mg), 40 min
  Total drug released: 64.8 mg
[1]; Ex. 6, uncoated solid matrix-type reservoir (135 mg), 60 min
  Total drug released: 77.0 mg
[1]; Ex. 6, uncoated solid matrix-type reservoir (135 mg), 80 min
  Total drug released: 87.8 mg
[1]; Ex. 6, uncoated solid matrix-type reservoir (135 mg), 100 min
  Total drug released: 94.5 mg
[1]; Ex. 6, uncoated solid matrix-type reservoir (135 mg), 180 min
  Total drug released: 115 mg

## COc1ccc([C@@H]2Sc3ccccc3N(CCN(C)C)C(=O)[C@@H]2OC(C)=O)cc1.Cl [Diltiazem, diltiazem HCl]
[4]; Ex. 7, coated reservoir, no drug in protective membrane, 0.5 h
  Total drug released: 14.4 mg
[4]; Ex. 7, coated reservoir, no drug in protective membrane, 1 h
  Total drug released: 29.5 mg
[4]; Ex. 7, coated reservoir, no drug in protective membrane, 2 h
  Total drug released: 67.6 mg
[4]; Ex. 7, coated reservoir, no drug in protective membrane, 3 h
  Total drug released: 89.9 mg
[4]; Ex. 7, coated reservoir, no drug in protective membrane, 4 h
  Total drug released: 102.3 mg
[4]; Ex. 7, uncoated solid matrix-type reservoir (120 mg), 15 min
  Total drug released: 40.0 mg
[4]; Ex. 7, uncoated solid matrix-type reservoir (120 mg), 30 min
  Total drug released: 57.6 mg
[4]; Ex. 7, uncoated solid matrix-type reservoir (120 mg), 45 min
  Total drug released: 69.6 mg
[4]; Ex. 7, uncoated solid matrix-type reservoir (120 mg), 60 min
  Total drug released: 80.4 mg
[4]; Ex. 7, uncoated solid matrix-type reservoir (120 mg), 75 min
  Total drug released: 85.2 mg
